In one experiment the test system is K. pneumoniae ATCC 10031. The experiment can be described thus: Intrinsic MIC assay (broth microdilution), K. pneumoniae. The experiment is classed as cell-based, Klebsiella pneumoniae. The following applies: Klebsiella pneumoniae. How it is done:
(§1) MIC assays were conducted in accordance with Clinical and Laboratory Standards Institute (CLSI) guidelines for broth microdilution.
(§2) The intrinsic MIC of the experimental EPIs was tested with the method described. The 2-fold serial dilution begins with 100 μg/mL of tested compound in the first column of the 96-well plates. The following Gram-negative bacterial strains were included in these assays: • Escherichia coli ATCC 25922 • Klebsiella pneumoniae ATCC 13883 and ATCC 10031 • Pseudomonas aeruginosa ATCC 27853. • Pseudomonas aeruginosa PAO1 • Acinetobacter baumannii ATCC 19606
In general terms: In broth dilution the organism is exposed to a series of concentrations in liquid medium.

The subject of the next experiment is E. coli ATCC 25922. The experiment can be described thus: Intrinsic MIC assay (broth microdilution), E. coli. Format: cell-based, Escherichia coli. The following applies: Escherichia coli. The method, then:
as §1, §2

The test system of the next experiment is A. baumannii ATCC 19606. As to the kind of experiment: Intrinsic MIC assay (broth microdilution), A. baumannii. The experiment is classed as cell-based, Acinetobacter baumannii. The following applies: Acinetobacter baumannii. The method, then: as §1, §2
In experiment [1] the test system is P. Aeruginosa PAO1. As to the kind of experiment: MIC assay in the presence of a bacterial efflux pump inhibitor (EPI), P. aeruginosa PAO1. Format: cell-based, Pseudomonas aeruginosa. The following applies: in the presence of 12.5 μg/ml of N-(((2S,4R)-4-(aminomethyl)pyrrolidin-2-yl)methyl)-6-(4-fluorophenyl)-1H-indole-2-carboxamide. The method, then:
The ability of a compound to produce an antibiotic effect can be determined using a method as described in Example 11. Data for representative compounds used in combination with the bacterial efflux pump inhibitor (EPI) N-(((2S,4R)-4-(aminomethyl)pyrrolidin-2-yl)methyl)-6-(4-fluorophenyl)-1H-indole-2-carboxamide is shown in Table 1.
as §1
The EPI assay for the purposes of these studies represents a MIC assay in which the MIC of the antibiotic against the bacteria is tested in the presence of an experimental efflux pump inhibitor (EPI). The highest concentration of the EPI present in the assay typically is ½ of the intrinsic MIC of the compound. […] Using serial dilutions of the EPI, its enhancement of antibiotic activity was then evaluated. The relative EPI activity was decided by comparing the MIC of the antibiotic in the presence of the EPI compound with the intrinsic MIC of the antibiotic alone. For comparative purposes, we generally used EPIs at concentration of 12.5 and 6.25 μg/ml against varying concentration of our test antibiotic.

The subject of experiment [2] is P. Aeruginosa PAO1. As to the kind of experiment: Intrinsic MIC assay (broth microdilution), P. aeruginosa PAO1. The experiment is classed as cell-based, Pseudomonas aeruginosa. The following applies: for MIC: Pseudomonas aeruginosa, read-out: Intrinsic MIC; for Intrinsic MIC, second value printed in parentheses: not explained. The method, then: as §1, §2
The mark [3] stands for this setting: ATCC10031, K. pneumoniae ATCC 10031, read-out: Intrinsic MIC.
The mark [4] stands for this setting: ATCC25922, E. coli ATCC 25922, read-out: Intrinsic MIC.
The mark [5] stands for this setting: ATCC19606, A. baumannii ATCC 19606, read-out: Intrinsic MIC.
[6] abbreviates: 18 h, P. Aeruginosa PAO1, without EPI.
Setting [7] is: P. Aeruginosa PAO1, without EPI.

≈ marks a conversion by molar mass, not a printed value. Where two headings read alike, the source gives them in different places.

Consider twelve molecules from US11845742B2, “Therapeutic compounds and methods to treat infection” (priority 2017, dated 2023).

What is called MIC is the lowest concentration that inhibits growth of the organism. For `NCc1cc2ccc(Br)cc2[nH]1` [Example 13, (6-Bromo-1H-indol-2-yl)methanamine], the minimum inhibitory concentration (MIC) in the experiment on K. pneumoniae ATCC 10031 (setting [3]) was found to be 256 µg/mL (≈ 1140 µM); with E. coli ATCC 25922 (setting [4]) it was 256 µg/mL (≈ 1140 µM); with A. baumannii ATCC 19606 (setting [5]), 128 µg/mL (≈ 569 µM); in the experiment on P. Aeruginosa PAO1 [2] (setting [6]), 64 µg/mL (≈ 284 µM). Also, the MIC in the Presence of EPI* in the experiment with P. Aeruginosa PAO1 [1] came out at 16 µg/mL.
Regarding `NCc1cc2cc(Br)ccc2[nH]1` [Example 14, (5-Bromo-1H-indol-2-yl)methanamine], the minimal inhibitory concentration (MIC) in the experiment on K. pneumoniae ATCC 10031 (setting [3]) came to 64 µg/mL (≈ 284 µM); in the experiment with E. coli ATCC 25922 (setting [4]), 128 µg/mL (≈ 569 µM); in the experiment on A. baumannii ATCC 19606 (setting [5]), 64 µg/mL (≈ 284 µM); in the experiment with P. Aeruginosa PAO1 [2] (setting [6]) it was 128 µg/mL (≈ 569 µM). Further, the MIC in the Presence of EPI* with P. Aeruginosa PAO1 [1] is 8 µg/mL.
As to `CC(N)c1cc2c(Cl)cc(Cl)cc2[nH]1` (stereo not shown) [Example 15, 1-(4,6-Dichloro-1H-indol-2-yl)ethan-1-amine], the minimum inhibitory concentration (MIC) was found to be 64 µg/mL (≈ 279 µM) in the experiment on K. pneumoniae ATCC 10031 (setting [3]), 128 µg/mL (≈ 559 µM) in the experiment with E. coli ATCC 25922 (setting [4]) and 32 µg/mL (≈ 140 µM) in the experiment on A. baumannii ATCC 19606 (setting [5]). The MIC in the Presence of EPI* with P. Aeruginosa PAO1 [1] is 16 µg/mL. The same molecule displayed an Intrinsic MIC in the experiment on P. Aeruginosa PAO1 [2] (setting [7]) of 256 µg/mL.
For the molecule `CC(c1cc2cc(Br)ccc2[nH]1)N(C)C` (stereo not shown) [Example 16, 1-(5-Bromo-1H-indol-2-yl)-N,N-dimethylethan-1-amine], the MIC was 256 µg/mL (≈ 958 µM) with K. pneumoniae ATCC 10031 (setting [3]), 256 µg/mL (≈ 958 µM) in the experiment with E. coli ATCC 25922 (setting [4]), 128 µg/mL (≈ 479 µM) in the experiment with A. baumannii ATCC 19606 (setting [5]) and 256 µg/mL (≈ 958 µM) with P. Aeruginosa PAO1 [2] (setting [6]). Further, in the experiment on P. Aeruginosa PAO1 [1], the MIC in the Presence of EPI* turned out to be 64 µg/mL.
Turning to `CC(N)c1cc2cc(F)c(F)cc2[nH]1` (stereo not shown) [Example 17, 1-(5,6-Difluoro-1H-indol-2-yl)ethan-1-amine], the MIC is 128 µg/mL (≈ 652 µM) in the experiment on K. pneumoniae ATCC 10031 (setting [3]), 256 µg/mL (≈ 1300 µM) with E. coli ATCC 25922 (setting [4]) and 128 µg/mL (≈ 652 µM) with A. baumannii ATCC 19606 (setting [5]). In addition, the MIC in the Presence of EPI* in the experiment on P. Aeruginosa PAO1 [1] amounted to 8 µg/mL. This molecule also displayed an Intrinsic MIC in the experiment on P. Aeruginosa PAO1 [2] (setting [7]) of 256 µg/mL.
For the molecule `NC1CCc2c1[nH]c1ccc(Br)cc21` (stereo not shown) [Example 18, 7-Bromo-1,2,3,4-tetrahydrocyclopenta[b]indol-3-amine], the MIC came to 32 µg/mL (≈ 127 µM) in the experiment on K. pneumoniae ATCC 10031 (setting [3]), 32 µg/mL (≈ 127 µM) with E. coli ATCC 25922 (setting [4]), 64 µg/mL (≈ 255 µM) in the experiment with A. baumannii ATCC 19606 (setting [5]) and 128 µg/mL (≈ 510 µM) in the experiment with P. Aeruginosa PAO1 [2] (setting [6]). Moreover, the MIC in the Presence of EPI* in the experiment on P. Aeruginosa PAO1 [1] came to 2 µg/mL.
Regarding `NC1CCCCc2c1[nH]c1ccc(Br)cc21` (stereo not shown) [Example 19, 2-Bromo-5,6,7,8,9,10-hexahydrocyclohepta[b]indol-6-amine], the MIC in the experiment with K. pneumoniae ATCC 10031 (setting [3]) turned out to be 16 µg/mL (≈ 57.3 µM); with E. coli ATCC 25922 (setting [4]) it was 16 µg/mL (≈ 57.3 µM); in the experiment with A. baumannii ATCC 19606 (setting [5]), 16 µg/mL (≈ 57.3 µM); in the experiment with P. Aeruginosa PAO1 [2] (setting [6]) it was 128 µg/mL (≈ 458 µM). Besides, the MIC in the Presence of EPI* in the experiment on P. Aeruginosa PAO1 [1] stood at 4 µg/mL.
As for `NC1CCCCc2c1[nH]c1ccc(Cl)c(Cl)c21` (stereo not shown) [Example 20, 1,2-Dichloro-5,6,7,8,9,10-hexahydrocyclohepta[b]indol-6-amine hydrochloric acid], the MIC is 2 µg/mL (≈ 7.43 µM) in the experiment on K. pneumoniae ATCC 10031 (ATCC10031, read-out: Intrinsic MIC); 8 µg/mL (≈ 29.7 µM) in the experiment with E. coli ATCC 25922 (ATCC25922, read-out: Intrinsic MIC); 8 µg/mL (≈ 29.7 µM) in the experiment with A. baumannii ATCC 19606 (ATCC19606, read-out: Intrinsic MIC); 32 µg/mL (≈ 119 µM) in the experiment with P. Aeruginosa PAO1 [2] (PAO1, 18 h). The MIC in the Presence of EPI* in the experiment on P. Aeruginosa PAO1 [1] came to 1 µg/mL.
Regarding `CC(NCCCN)c1cc2cc(Br)ccc2[nH]1` (stereo not shown) [Example 24, N^1-(1-(5-Bromo-1H-indol-2-yl)ethyl)propane-1,3-diamine], the minimum inhibitory concentration (MIC) stood at 64 µg/mL (≈ 216 µM) in the experiment with K. pneumoniae ATCC 10031 (setting [3]), 256 µg/mL (≈ 864 µM) in the experiment on A. baumannii ATCC 19606 (setting [5]) and 64 µg/mL (≈ 216 µM) in the experiment on P. Aeruginosa PAO1 [2] (setting [6]). In addition, the Intrinsic MIC, second value printed in parentheses in the experiment on P. Aeruginosa PAO1 [2] (setting [7]) amounted to 128 µg/mL.
Turning to `CC(NCCCNC(=O)c1ccc(Cl)s1)c1cc2cc(Br)ccc2[nH]1` (stereo not shown) [Example 27, N-(3-((1-(5-Bromo-1H-indol-2-yl)ethyl)amino)propyl)-5-chlorothiophene-2-carboxamide], the MIC in the experiment with K. pneumoniae ATCC 10031 (setting [3]) came to 8 µg/mL (≈ 18.1 µM); in the experiment on P. Aeruginosa PAO1 [2] (setting [6]), 32 µg/mL (≈ 72.6 µM). In the experiment on P. Aeruginosa PAO1 [1], the MIC in the Presence of EPI* amounted to 64 µg/mL. The Intrinsic MIC, second value printed in parentheses in the experiment with P. Aeruginosa PAO1 [2] (setting [7]) was > 256 µg/mL.
Turning to `NCCCNC1CCCCc2c1[nH]c1ccc(Br)cc21` (stereo not shown) [Example 28, N^1-(2-Bromo-5,6,7,8,9,10-hexahydrocyclohepta[b]indol-6-yl)propane-1,3-diamine], the MIC was found to be 8 µg/mL (≈ 23.8 µM) with K. pneumoniae ATCC 10031 (setting [3]), 16 µg/mL (≈ 47.6 µM) in the experiment on E. coli ATCC 25922 (setting [4]), 32 µg/mL (≈ 95.2 µM) in the experiment on A. baumannii ATCC 19606 (setting [5]) and 64 µg/mL (≈ 190 µM) with P. Aeruginosa PAO1 [2] (setting [6]). Besides, the Intrinsic MIC, second value printed in parentheses in the experiment on P. Aeruginosa PAO1 [2] (setting [7]) turned out to be 32 µg/mL.
For `NCCCNC1CCc2c1[nH]c1ccc(Br)cc21` (stereo not shown) [Example 29, N^1-(7-Bromo-1,2,3,4-tetrahydrocyclopenta[b]indol-3-yl)propane-1,3-diamine], the MIC amounted to 32 µg/mL (≈ 104 µM) in the experiment with K. pneumoniae ATCC 10031 (setting [3]), 64 µg/mL (≈ 208 µM) in the experiment on E. coli ATCC 25922 (setting [4]), 256 µg/mL (≈ 831 µM) in the experiment with A. baumannii ATCC 19606 (setting [5]) and 64 µg/mL (≈ 208 µM) in the experiment with P. Aeruginosa PAO1 [2] (setting [6]). The Intrinsic MIC, second value printed in parentheses with P. Aeruginosa PAO1 [2] (setting [7]) was 128 µg/mL.
